Test results taken from patent US7105541B2, “Naphthyl compounds, intermediates, compositions, and methods of use” (Eli Lilly and Company, priority 1996, dated 2006).
Structures can show the parent of a compound that is named as a salt. Marks after values point to notes of the source that are not given here.

Test system: ovariectomized rats
Experiment: ovariectomized rat model of postmenopausal hyperlipidemia (serum cholesterol, uterine weight, uterine eosinophil peroxidase)
Type: in vivo
Text: Experimental models of postmenopausal hyperlipidemia are known in the art. Germane to this invention is the ovariectomized rat model which is detailed in U.S. Pat. No. 5,464,845. Data presented in Table 1 show comparative results among ovariectomized rats, rats treated with 17-α-ethynyl estradiol (EE2), and rats treated with certain compounds of this invention. […] This uterine response to estrogen is well recognized in the art.
Not only did the compounds of the present invention reduce serum cholesterol compared to the ovariectomized animals, but the uterine weight was increased to lesser extent than those given EE2. Compared to estrogenic compounds known in the art, the benefit of serum cholesterol reduction while lessening the effect on uterine weight is unusual and desirable.
As expressed in the data below, estrogenicity also was assessed by evaluating the response of eosinophil infiltration into the uterus.
The data presented in Table 1 reflect the response per treatment group.

[1] = ovariectomized rats, 0.1 mg/kg PO
[2] = orally administered at 0.1 mg/kg/day, ovariectomized rats
[3] = ovariectomized rats, 1.0 mg/kg PO
[4] = ovariectomized rats, 10.0 mg/kg PO
[5] = ovariectomized rats, 0.01 mg/kg PO

| SMILES | Uterine Eosinophil (Vmax), eosinophil peroxidase [1] | Uterine Weight % Inc (increase versus the ovariectomized controls) [1] | Uterine Eosinophil (Vmax), eosinophil peroxidase [3] | Uterine Weight % Inc (increase versus the ovariectomized controls) [3] | Uterine Eosinophil (Vmax), eosinophil peroxidase [4] | Uterine Weight % Inc (increase versus the ovariectomized controls) [4] | Uterine Eosinophil (Vmax), eosinophil peroxidase [5] | Uterine Weight % Inc (increase versus the ovariectomized controls) [5] [%] | Serum Cholest. % Dec. (decrease versus ovariectomized controls) [1] | serum cholesterol (in words) [2] | uterine weight versus ovariectomized animals (in words) [2] | eosinophil infiltration into the uterus (in words) (stromal layer of ovariectomized rat uteri) | Serum Cholest. % Dec. (decrease versus ovariectomized controls) [3] | Serum Cholest. % Dec. (decrease versus ovariectomized controls) [4] | Serum Cholest. % Dec. (decrease versus ovariectomized controls) [5] [%] |
| --- | --- | --- | --- | --- | --- | --- | --- | --- | --- | --- | --- | --- | --- | --- | --- |
| O=C(c1ccc(OCCN2CCCCC2)cc1)c1c(-c2ccc(O)cc2)sc2cc(O)ccc12 [Raloxifene, [2-(4-hydroxyphenyl)-6-hydroxybenzo[b]thien-3-yl] [4-[2-(1-piperdinyl)ethoxy]phenyl]methanone hydrochloride, reference compound] | 5.4 | 23.5% | – | – | – | – | – | – | 49.3* % | – | – | – | – | – | – |
| COc1cccc(-c2ccc3ccccc3c2Oc2ccc(OCCN3CCCCC3)cc2)c1.Cl [Example 2, 1-[4-[2-(1-piperidinyl)ethoxy]phenoxy]-2-(3-methoxyphenyl)naphthalene hydrochloride] | 4.5 | 42.7* % | 7.8 | 43.8* % | 4.5 | 37.2* % | – | – | 59.6* % | – | – | – | 66.2* % | 59.0* % | – |

Continued, in another order:

| Uterine Eosinophil (Vmax), eosinophil peroxidase [1] | Uterine Weight % Inc (increase versus the ovariectomized controls) [1] | Uterine Eosinophil (Vmax), eosinophil peroxidase [3] | Uterine Weight % Inc (increase versus the ovariectomized controls) [3] | Uterine Eosinophil (Vmax), eosinophil peroxidase [4] | Uterine Weight % Inc (increase versus the ovariectomized controls) [4] | Uterine Eosinophil (Vmax), eosinophil peroxidase [5] | Uterine Weight % Inc (increase versus the ovariectomized controls) [5] [%] | SMILES | Serum Cholest. % Dec. (decrease versus ovariectomized controls) [1] | serum cholesterol (in words) [2] | uterine weight versus ovariectomized animals (in words) [2] | eosinophil infiltration into the uterus (in words) (stromal layer of ovariectomized rat uteri) | Serum Cholest. % Dec. (decrease versus ovariectomized controls) [3] | Serum Cholest. % Dec. (decrease versus ovariectomized controls) [4] | Serum Cholest. % Dec. (decrease versus ovariectomized controls) [5] [%] |
| --- | --- | --- | --- | --- | --- | --- | --- | --- | --- | --- | --- | --- | --- | --- | --- |
| 174.3* | 138.8* % | – | – | – | – | – | – | C#C[C@]1(O)CC[C@H]2[C@@H]3CCc4cc(O)ccc4[C@H]3CC[C@@]21C [EE2, 17-α-Ethynyl-estradiol, reference compound] | 88.1* % | caused a decrease in serum cholesterol | substantially greater than the uterine weight of the ovariectomized animals | substantial and expected increase in eosinophil infiltration | – | – | – |
| 4.8 | 21.9% | 4.8 | 35.8* % | – | – | 2.1 | 9.6 | COc1cccc(-c2ccc3cc(OC)ccc3c2Oc2ccc(OCCN3CCCCC3)cc2)c1.Cl [Example 1, 1-[4-[2-(1-piperidinyl)ethoxy]phenoxy]-2-(3-methoxyphenyl)-6-methoxynaphthalene hydrochloride] | 55.6* % | – | – | – | 60.5* % | – | 12.1 |
| 4.8 | 10.4% | 3.0 | 15.3% | 1.2 | 3.9% | – | – | Cl.Oc1cccc(-c2ccc3cc(O)ccc3c2Oc2ccc(OCCN3CCCCC3)cc2)c1 [Example 3, 1-[4-[2-(1-piperidinyl)ethoxy]phenoxy]-2-(3-hydroxyphenyl)-6-hydroxynaphthalene hydrochloride] | 26.3* % | – | – | – | 45.7* % | 22.9% | – |
